# Values of other authors in patent US8680293B2, “Substituted CC-1065 analogs and their conjugates” (Syntarga B.V., priority 2007, dated 2014).
# Settings: reason it could not be used in the clinic
smiles,measurement,value
COc1c(O)c2c(c3cc(C(=O)N4CCc5c4c(O)c(OC)c4[nH]c(C(=O)N6CC7CC78C6=CC(=O)c6[nH]cc(C)c68)cc54)[nH]c13)CCN2C(N)=O (stereo not shown) [CC-1065],hepatotoxicity,serious delayed hepatotoxicity
